Source: patent US8435978B2, “Substituted sulfonamide compounds” (Gruenenthal GmbH, priority 2006, dated 2013)

Experiments:
human B1R receptor = target: T1, human B1R receptor (Homo sapiens, UniProt P46663); experiment: Functional study on the bradykinin receptor 1 (B1R), FLIPR Ca2+ assay, hB1R cells; format: cell-based; conditions: agonist Lys-Des-Arg9-bradykinin 0.5 nM, % inhibition compared with the maximum achievable inhibition; for B1R Antagonism, human [10 μM] % Inhibition: test substance 10 μM, hB1R CHO K1 cells; for inhibition at 10 µM: CHO-K1, test substance 10 μM, read-out: B1R Antagonism, human [10 μM] % Inhibition
T1 construct: host or cells: CHO K1 cells (Chinese hamster ovary), stably transfected
T1 sequence (P46663 1-353): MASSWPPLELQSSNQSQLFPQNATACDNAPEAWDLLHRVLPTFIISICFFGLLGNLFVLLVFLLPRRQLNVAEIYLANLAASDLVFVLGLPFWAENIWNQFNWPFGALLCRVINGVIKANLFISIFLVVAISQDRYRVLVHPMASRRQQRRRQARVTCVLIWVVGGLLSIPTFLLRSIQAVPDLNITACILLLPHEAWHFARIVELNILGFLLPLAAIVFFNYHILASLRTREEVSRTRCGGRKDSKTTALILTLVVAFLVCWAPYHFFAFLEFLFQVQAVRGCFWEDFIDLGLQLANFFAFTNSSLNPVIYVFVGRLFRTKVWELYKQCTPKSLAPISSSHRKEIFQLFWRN
Outline: (§1)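 CHO K1 cells stably expressing human or rat B1R, Fluo-4-loaded; test compound 10 μM added first (activation % vs agonist), then after 10 min 0.5 nM Lys-Des-Arg9-bradykinin (human) or 100 nM Des-Arg9-bradykinin (rat). Ca2+ peak fluorescence by FLIPR; % inhibition relative to maximum achievable inhibition.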

B1R receptor of the rat = target: T2, B1R receptor of the rat (Rattus norvegicus, UniProt P97583); experiment: Functional study on the bradykinin receptor 1 (B1R), FLIPR Ca2+ assay, rB1R cells; format: cell-based; conditions: agonist Des-Arg9-bradykinin 100 nM, % inhibition compared with the maximum achievable inhibition; for B1R Antagonism, rat [10 μM] % Inhibition: test substance 10 μM, rB1R CHO K1 cells; for inhibition at 10 µM: CHO-K1, test substance 10 μM, read-out: B1R Antagonism, rat [10 μM] % Inhibition
T2 construct: host or cells: CHO K1 cells (Chinese hamster ovary), stably transfected
T2 sequence (P97583 1-337): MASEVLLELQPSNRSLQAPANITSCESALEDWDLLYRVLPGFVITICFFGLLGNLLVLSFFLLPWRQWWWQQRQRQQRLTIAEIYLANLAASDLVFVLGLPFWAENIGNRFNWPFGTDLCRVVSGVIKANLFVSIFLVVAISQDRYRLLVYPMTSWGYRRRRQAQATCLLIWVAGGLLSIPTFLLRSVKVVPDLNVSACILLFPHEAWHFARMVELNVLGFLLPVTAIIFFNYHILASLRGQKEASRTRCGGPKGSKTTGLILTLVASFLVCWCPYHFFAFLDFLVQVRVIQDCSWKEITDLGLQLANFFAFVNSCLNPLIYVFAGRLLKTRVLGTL
Outline: as §1

B1R Antagonism, human [10 μM] % Inhibition (human B1R receptor) [%]	B1R Antagonism, rat [10 μM] % Inhibition (B1R receptor of the rat) [%]	inhibition at 10 µM (human B1R receptor) [%]	inhibition at 10 µM (B1R receptor of the rat) [%]	Molecule
100.69	102.41			COc1cc(C)c(S(=O)(=O)N2CCCC2COCC(=O)NCc2ccc(N3CCN(C)CC3)cc2)c(C)c1 (stereo not drawn) [Example 302, 2-((1-(4-methoxy-2,6-dimethylphenylsulfonyl)pyrrolidin-2-yl)methoxy)-N-(4-(4-methylpiperazin-1-yl)benzyl)acetamide]
		105	101	O=C(COCC1CCCCN1S(=O)(=O)c1c(Cl)cc(Cl)cc1Cl)N(C1CC1)C1CCN(Cc2ccccc2)CC1 (stereo not drawn) [Example 255, N-(1-benzylpiperidin-4-yl)-N-cyclopropyl-2-((1-(2,4,6-trichlorophenylsulfonyl)piperidin-2-yl)methoxy)acetamide]
105.91	100			N-(4-(dimethylamino)butyl)-2-((1-(2,4,6-trichlorophenylsulfonyl)pyrrolidin-2-yl)methoxy)acetamide [Example 294]
		104	92.9	COc1ccc(N2CCN(C(=O)COCC3CCCCN3S(=O)(=O)c3c(C)cc(OC)cc3C)CC2)cc1 (stereo not drawn) [Example 290, 2-((1-(4-methoxy-2,6-dimethylphenylsulfonyl)piperidin-2-yl)methoxy)-1-(4-(4-methoxyphenyl)piperazin-1-yl)ethanone]
		107	101	O=C(COCC1CCCN1S(=O)(=O)c1c(Cl)cc(Cl)cc1Cl)N(C1CC1)C1CCN(Cc2ccccc2)CC1 (stereo not drawn) [Example 334, N-(1-benzylpiperidin-4-yl)-N-cyclopropyl-2-((1-(2,4,6-trichlorophenylsulfonyl)pyrrolidin-2-yl)methoxy)acetamide]
		81.6	40.6	CN1CCC(N2CCN(C(=O)COCC3CCCCN3S(=O)(=O)c3cc(C(F)(F)F)ccc3C(F)(F)F)CC2)CC1 (stereo not drawn) [Example 153, 2-((1-(2,5-bis(trifluoromethyl)phenylsulfonyl)piperidin-2-yl)methoxy)-1-(4-(1-methylpiperidin-4-yl)piperazin-1-yl)ethanone]
		96.4	108	COc1cc(C)c(S(=O)(=O)N2CCCCC2COCC(=O)N(C)CCN2CCCCC2)c(C)c1 (stereo not drawn) [Example 532, 2-((1-(4-methoxy-2,6-dimethylphenylsulfonyl)piperidin-2-yl)methoxy)-N-methyl-N-(2-(piperidin-1-yl)ethyl)acetamide]
		98.6	103	O=C(COCC1CCCN1S(=O)(=O)c1c(Cl)cccc1Cl)N1CCN(Cc2ccc(Cl)cc2)CC1 (stereo not drawn) [Example 359, 1-(4-(4-chlorobenzyl)piperazin-1-yl)-2-((1-(2,6-dichlorophenylsulfonyl)pyrrolidin-2-yl)methoxy)ethanone]
		91.5	101	CCN(CC)CCN(CC)C(=O)COCC1CCCCN1S(=O)(=O)c1c(C)cc(OC)cc1C (stereo not drawn) [Example 380, N-(2-(diethylamino)ethyl)-N-ethyl-2-((1-(4-methoxy-2,6-dimethylphenylsulfonyl)piperidin-2-yl)methoxy)acetamide]
		64.8	0	COc1cccc(N2CCN(C(=O)COCC3CCCCN3S(=O)(=O)c3ccc(Cl)c(Cl)c3)CC2)c1 (stereo not drawn) [Example 53, 2-[1-(3,4-dichloro-phenylsulfonyl)-piperidin-2-ylmethoxy]-1-[4-(3-methoxy-phenyl)-piperazin-1-yl]-ethanone]
		97.3	93.4	COc1cc(C)c(S(=O)(=O)N2CCCCC2COCC(=O)Nc2ccc(CN3CCC(C)CC3)cc2)c(C)c1 (stereo not drawn) [Example 421, 2-((1-(4-methoxy-2,6-dimethylphenylsulfonyl)piperidin-2-yl)methoxy)-N-(4-((4-methylpiperidin-1-yl)methyl)phenyl)acetamide]
		104	84.1	Cc1cc(C)c(S(=O)(=O)N2CCCCC2COCC(=O)N2CCC(N3CCCCC3)CC2)c(C)c1 (stereo not drawn) [Example 225, 1-(1,4′-bipiperidin-1′-yl)-2-((1-(mesitylsulfonyl)piperidin-2-yl)methoxy)ethanone]
		104	87.4	COc1cc(C)c(S(=O)(=O)N2CCCCC2COCC(=O)NCc2ccc(CN3CCCCC3)cc2)c(C)c1 (stereo not drawn) [Example 2, 2-[1-(4-methoxy-2,6-dimethyl-phenylsulfonyl)-piperidin-2-ylmethoxy]-N-(4-piperidin-1-ylmethyl-benzyl)-acetamide]
		104	101	O=C(COCC1CCCN1S(=O)(=O)c1c(Cl)cc(Cl)cc1Cl)NCC1CCCN(Cc2ccccc2)C1 (stereo not drawn) [Example 327, N-((1-benzylpiperidin-3-yl)methyl)-2-((1-(2,4,6-trichlorophenylsulfonyl)pyrrolidin-2-yl)methoxy)acetamide]
		-10.1	4.48	CN(CCC1CCC(N2CCCC2)CC1)C(=O)COCC1CCc2ccccc2N1S(=O)(=O)c1ccc(Cl)c(Cl)c1 (stereo not drawn) [Example 216, 2-((1-(3,4-dichlorophenylsulfonyl)-1,2,3,4-tetrahydroquinolin-2-yl)methoxy)-N-methyl-N-(2-(4-(pyrrolidin-1-yl)cyclohexyl)ethyl)acetamide]
		79.4	45.7	O=C(COCC1CCCN1S(=O)(=O)c1ccc(Cl)c(Cl)c1)N1CCC(CCN2CCCCC2)CC1 (stereo not drawn) [Example 36, 2-((1-(3,4-dichlorophenylsulfonyl)pyrrolidin-2-yl)methoxy)-1-(4-(2-(piperidin-1-yl)-ethyl)piperidin-1-yl)ethanone]
		101	103	CCN1CCN(CCCNC(=O)COCC2CCCCN2S(=O)(=O)c2c(C)cc(OC)cc2C)CC1 (stereo not drawn) [Example 412, N-(3-(4-ethylpiperazin-1-yl)propyl)-2-((1-(4-methoxy-2,6-dimethylphenylsulfonyl)piperidin-2-yl)methoxy)acetamide]
		100	101	O=C(COCC1CCCCN1S(=O)(=O)c1c(Cl)cccc1Cl)N1CCCC1Cc1ccccn1 (stereo not drawn) [Example 456, 2-((1-(2,6-dichlorophenylsulfonyl)piperidin-2-yl)methoxy)-1-(2-(pyridin-2-ylmethyl)pyrrolidin-1-yl)ethanone]
		105	101	COc1cc(C)c(S(=O)(=O)N2CCCCC2COCC(=O)N(C)[C@H]2CCN(Cc3ccccc3)C2)c(C)c1 (stereo partly drawn) [Example 364, N—((S)-1-benzylpyrrolidin-3-yl)-2-((1-(4-methoxy-2,6-dimethylphenylsulfonyl)piperidin-2-yl)methoxy)-N-methylacetamide]
		59.9	109	COc1cc(C)c(S(=O)(=O)N2CCCC2COCC(=O)NCc2ccc(N3CCCCC3)cc2)c(C)c1 (stereo not drawn) [Example 60, 2-[1-(4-methoxy-2,6-dimethyl-phenylsulfonyl)-pyrrolidin-2-ylmethoxy]-N-(4-piperidin-1-yl-benzyl)-acetamide]
		106	100	COc1cc(C)c(S(=O)(=O)N2CCCCC2COCC(=O)N2CCC(N3CCn4cccc4C3)CC2)c(C)c1 (stereo not drawn) [Example 211, 1-(4-(3,4-dihydropyrrolo[1,2-a]pyrazin-2(1H)-yl)piperidin-1-yl)-2-((1-(4-methoxy-2,6-dimethylphenylsulfonyl)piperidin-2-yl)methoxy)ethanone]
		89.9	63	COc1ccc(S(=O)(=O)N2Cc3ccccc3C[C@H]2COCC(=O)N2CCN(C3CCN(C)CC3)CC2)cc1 [Example 142, (S)-2-((2-(4-methoxyphenylsulfonyl)-1,2,3,4-tetrahydroisoquinolin-3-yl)methoxy)-1-(4-(1-methylpiperidin-4-yl)piperazin-1-yl)ethanone]
		102	101	COc1cc(C)c(S(=O)(=O)N2CCCCC2COCC(=O)N(CCCN(C)C)CCCN(C)C)c(C)c1 (stereo not drawn) [Example 561, N,N-bis(3-(dimethylamino)propyl)-2-((1-(4-methoxy-2,6-dimethylphenylsulfonyl)piperidin-2-yl)methoxy)acetamide]
		102	100	COc1cc(C)c(S(=O)(=O)N2Cc3ccccc3CC2COCC(=O)N2CCN(C3CCN(C)CC3)CC2)c(C)c1C (stereo not drawn) [Example 562, 2-((2-(4-methoxy-2,3,6-trimethylphenylsulfonyl)-1,2,3,4-tetrahydroisoquinolin-3-yl)methoxy)-1-(4-(1-methylpiperidin-4-yl)piperazin-1-yl)ethanone]
